Reference: PubChem BioAssay (NCI)
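The compound was tested at five concentrations on cells cultured in 96-well plates, with a 48-hour exposure period. Abbreviation: GI50, concentration required for 50% inhibition of growth. TGI is the concentration that stops growth completely.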

What was measured:
Assay in all cases: DTP human tumour cell line panel, 48 h
[1] = system: LOX IMVI melanoma
[2] = system: U251 CNS
[3] = system: HT29 colon
[4] = system: KM12 colon
[5] = system: SN12C renal
[6] = system: HL-60(TB) leukemia
[7] = system: HCT-15 colon
[8] = system: SK-OV-3 ovarian
[9] = system: CCRF-CEM leukemia
[10] = system: A498 renal

| Compound | TGI [1] [µM] | TGI [2] [µM] | TGI [3] [µM] | TGI [4] [µM] | TGI [5] [µM] | TGI [6] [µM] | TGI [7] [µM] | TGI [8] [µM] | TGI [9] [µM] | TGI [10] [µM] | GI50 [1] [µM] | GI50 [2] [µM] | GI50 [9] [µM] | GI50 [3] [µM] | GI50 [4] [µM] | GI50 [5] [µM] | GI50 [6] [µM] | GI50 [10] [µM] | GI50 [7] [µM] | GI50 [8] [µM] |
| --- | --- | --- | --- | --- | --- | --- | --- | --- | --- | --- | --- | --- | --- | --- | --- | --- | --- | --- | --- | --- |
| Cc1cc(N(CCCCl)CCCCl)ccc1C=Nc1cccc(Cl)c1 | 26.7 | 32.2 | 27.7 | 26.3 | 37.1 | 38 | 30.2 | 61.7 |  |  |  |  |  |  |  |  |  |  |  |  |
| C[n+]1ccc(-c2cc[n+](C)cc2)cc1 | > 48.1 | > 70.9 | > 81.9 | > 92.4 | 30.3 | 24.8 | > 52.3 | > 100 | > 100 | > 50.3 |  |  |  |  |  |  |  |  |  |  |
| c1ccc2sc(SCN(C3CCCCC3)C3CCCCC3)nc2c1 | > 100 | > 100 | > 100 | > 100 |  |  | > 100 |  |  | > 100 |  |  |  |  |  |  |  |  |  |  |
| Nc1ccc(Nc2c3ccccc3nc3ccccc23)cc1 | 2.35 | > 10 | > 10 | > 10 | > 10 | > 10 | > 10 | > 10 | 6.19 |  |  |  |  |  |  |  |  |  |  |  |
| Nc1nnc(N)n1NC(=O)C(=O)Nc1ccc([N+](=O)[O-])cc1 | > 100 | > 100 | > 100 | > 100 | > 100 | > 100 | > 100 | > 100 | > 100 | > 100 |  |  |  |  |  |  |  |  |  |  |
| COc1cc2c(cc1Oc1ccc(OC)c3c1CC1c4c(cc(OC)c(OC)c4-3)CCN1C)CC1c3c(cc(OC)c(OC)c3-2)CCN1C (stereo not given) | 2.48 | 4.19 | 2.94 | 9.33 | 19.3 | 2.72 | 6.93 | 31.9 | 10.2 | 12.6 |  |  |  |  |  |  |  |  |  |  |
| Fc1ccc(-c2nnc3sc(COc4ccccc4Cl)nn23)cc1Cl | 31.6 | 67.2 | > 100 | > 100 | > 100 | > 100 | 48.7 | > 100 | 52.6 | 93.6 | 16.5 | 24.9 | 20.8 | 48.1 | 77.1 | 31.9 | 30.4 | 34.6 | 17.7 | 93.3 |
| O=C1c2ccccc2C(=O)c2c1ccc(C(=O)O)c2-c1ccc2ccccc2c1 | 41.6 | 55.4 | > 100 | > 100 | 88.8 | 61.2 | 56.6 | > 100 | 52.4 | 85.5 |  |  |  |  |  |  |  |  |  |  |
| CCCCCCCCCCCCCCCCOCC(COP(=O)([O-])OCC[n+]1ccc(N(C)C)cc1)OCC (stereo not given) | 25.5 | 25.6 | 28 | 3.86 | 34.6 | 3.79 | 32.5 |  | 24.9 |  |  |  |  |  |  |  |  |  |  |  |
| COc1ccc(CC2c3cc(OC)c(OC)c(OC)c3CC[N+]2(C)C)cc1Oc1ccc(CC2c3cc4c(c(OC)c3CCN2C)OCO4)cc1 (stereo not given) | > 100 | > 100 | > 100 | > 100 | > 100 | 89.7 | > 100 | > 100 |  | > 100 |  |  |  |  |  |  |  |  |  |  |
| Cc1cc(=O)oc2c1cc(OCC(=O)OCCN1CCCCC1)c1occ(C)c12 | > 100 | > 100 | > 100 | > 100 | > 100 | > 100 | > 100 |  | > 100 | > 100 |  |  |  |  |  |  |  |  |  |  |
| COc1cc(O)c2c(c1)C(=O)c1cc(C)cc(O)c1C2=O | > 100 | > 100 | > 100 | > 100 | > 100 | > 100 |  | > 100 | > 100 | > 100 |  |  |  |  |  |  |  |  |  |  |
| COc1cc(C)c2c(=O)c3c(oc2c1)C(=O)c1c(O)c(OC)cc(O)c1C3=O | 1.24 | 2.53 | > 50 | 11.9 | 5.3 | 2.57 | 3.79 | 3.98 | 5.12 | 5.54 |  |  |  |  |  |  |  |  |  |  |
| O=c1cc(O)c2ccccc2o1 | > 100 | > 100 | > 100 | > 100 | > 100 | > 100 |  |  | > 100 | > 100 |  |  |  |  |  |  |  |  |  |  |
| CC(C)=CCC[C@](C)(O[C@@H]1O[C@H](CO)[C@@H](O)[C@H](O)[C@H]1O)[C@H]1CC[C@]2(C)[C@@H]1[C@H](O)C[C@@H]1[C@@]3(C)CC[C@H](O)C(C)(C)[C@@H]3[C@@H](O[C@@H]3O[C@H](CO)[C@@H](O)[C@H](O)[C@H]3O)C[C@]12C | > 100 | > 100 | > 100 | > 100 | > 100 | > 100 | > 100 | > 100 | > 100 | > 100 |  |  |  |  |  |  |  |  |  |  |
| Cn1c(Sc2ccc(-c3cccnc3)n2C)ccc1-c1cccnc1 | 15.8 | 26.9 | 55.1 | 33.6 | 39.6 | 5.78 | 35.6 | 60.9 | 4.53 | 47.6 |  |  |  |  |  |  |  |  |  |  |
| COc1c(Cl)cc(S(=O)O)cc1Cl | > 100 | > 100 | > 100 | > 100 | > 100 | > 100 |  | > 100 | > 100 | > 100 |  |  |  |  |  |  |  |  |  |  |
| NC(=O)Nc1cc(O)ccc1N=Nc1ccc(S(=O)(=O)Nc2ccccn2)cc1 | > 100 | > 100 | > 100 | > 100 | > 100 | > 100 | > 100 | > 100 | > 100 | > 100 |  |  |  |  |  |  |  |  |  |  |
| CCOC(=O)NC | > 100 | > 100 | > 100 | > 100 | > 100 | > 100 | > 100 | > 100 | > 100 | > 100 |  |  |  |  |  |  |  |  |  |  |
